Measurements taken from ChEMBL document CHEMBL3045512, “Synthesis of some novel triazoloquinazolines and triazinoquinazolines and their evaluation for anti-inflammatory activity” (Med Chem Res, 2012).

What was measured:
[1] = system: Mus musculus; assay: Toxicity in Mus musculus albino (mouse) assessed as bluish skin at 80 to 375 mg/kg, ip; assay type: organism-based; parameters: dose 80-375 mg/kg, route intraperitoneal; details: in vivo
[2] = system: Mus musculus; assay: Anti-inflammatory activity in Mus musculus albino (mouse) assessed as inhibition of formalin-induced paw swelling at 30 mg/kg, po administered 30 min prior formalin challenge measured after 90 min post challenge (reference value: 9.5 +/- 0.04 mm/min); assay type: functional
[3] = system: Mus musculus; assay: Toxicity in Mus musculus albino (mouse) assessed as increase in heart rate at 80 to 375 mg/kg, ip; assay type: organism-based; parameters: dose 80-375 mg/kg, route intraperitoneal; details: in vivo
[4] = system: Mus musculus; assay: Toxicity in Mus musculus albino (mouse) assessed as general depression at 80 to 375 mg/kg, ip; assay type: organism-based; parameters: dose 80-375 mg/kg, route intraperitoneal; details: in vivo
[5] = system: Mus musculus; assay: Anti-inflammatory activity in Mus musculus albino (mouse) assessed as inhibition of formalin-induced paw swelling at 30 mg/kg, po administered 30 min prior formalin challenge measured after 30 min post challenge (reference value: 9.46 +/- 0.035 mm/min); assay type: functional
[6] = system: Mus musculus; assay: Toxicity in Mus musculus albino (mouse) assessed as serum TBARS level at 300 mg/kg, po for 10 days (reference value: 4.35 +/- 0.86 U/l); assay type: organism-based; parameters: dose 300 mg/kg, route oral; details: in vivo, 240 h
[7] = system: Mus musculus; assay: Anti-inflammatory activity in Mus musculus albino (mouse) assessed as inhibition of formalin-induced paw swelling at 30 mg/kg, po administered 30 min prior formalin challenge measured after 60 min post challenge (reference value: 9.73 +/- 0.06 mm/min); assay type: functional
[8] = system: Mus musculus; assay: Toxicity in Mus musculus albino (mouse) assessed as bluish toe at 80 to 375 mg/kg, ip; assay type: organism-based; parameters: dose 80-375 mg/kg, route intraperitoneal; details: in vivo
[9] = system: Mus musculus; assay: Toxicity in Mus musculus albino (mouse) assessed as serum gamma-glutamyl transferase level at 300 mg/kg, po for 10 days (reference value: 4.43 +/- 0.31 U/l); assay type: organism-based; parameters: dose 300 mg/kg, route oral; details: in vivo, 240 h
[10] = system: Mus musculus; assay: Toxicity in Mus musculus albino (mouse) assessed as serum SGPT level at 300 mg/kg, po for 10 days (reference value: 35.82 +/- 5.26 U/l); assay type: organism-based; parameters: dose 300 mg/kg, route oral; details: in vivo, 240 h
[11] = system: Mus musculus; assay: Toxicity in Mus musculus albino (mouse) assessed as serum LDH level at 300 mg/kg, po for 10 days (reference value: 217.84 +/- 13.36 U/l); assay type: organism-based; parameters: dose 300 mg/kg, route oral; details: in vivo, 240 h
[12] = system: Mus musculus; assay: Toxicity in Mus musculus albino (mouse) assessed as SOD activity per gram of Hb at 300 mg/kg, po for 10 days (reference value: 12.7+/- 2.08 U/g Hb); assay type: organism-based; parameters: dose 300 mg/kg, route oral; details: in vivo, 240 h
[13] = system: Mus musculus; assay: Toxicity in ip dosed Mus musculus albino (mouse) assessed as mortality measured per gram body weight; assay type: organism-based; details: in vivo
[14] = system: Mus musculus; assay: Toxicity in Mus musculus albino (mouse) assessed as serum SGOT level at 300 mg/kg, po for 10 days (reference value: 9.74 +/- 1.73 U/l); assay type: organism-based; parameters: dose 300 mg/kg, route oral; details: in vivo, 240 h
[15] = system: Mus musculus; assay: Anti-inflammatory activity in Mus musculus albino (mouse) assessed as inhibition of formalin-induced paw swelling at 30 mg/kg, po administered 30 min prior formalin challenge measured after 120 min post challenge (reference value: 9.83 +/- 0.071 mm/min); assay type: functional
[16] = system: Mus musculus; assay: Toxicity in Mus musculus albino (mouse) assessed as serum ALP level at 300 mg/kg, po for 10 days (reference value: 31.63 +/- 3.73 U/l); assay type: organism-based; parameters: dose 300 mg/kg, route oral; details: in vivo, 240 h
[17] = system: Mus musculus; assay: Toxicity in Mus musculus albino (mouse) assessed as GPx activity per gram of Hb at 300 mg/kg, po for 10 days (Rvb =179.16 +/- 10.45 U/g Hb); assay type: organism-based; parameters: dose 300 mg/kg, route oral; details: in vivo, 240 h
[18] = system: Mus musculus; assay: Toxicity in Mus musculus albino (mouse) assessed as rapid respiration at 80 to 375 mg/kg, ip; assay type: organism-based; parameters: dose 80-375 mg/kg, route intraperitoneal; details: in vivo
[19] = system: Mus musculus; assay: Toxicity in Mus musculus albino (mouse) assessed as GSH activity at 300 mg/kg, po for 10 days (reference value: 59.57 +/- 5.10 %); assay type: organism-based; parameters: dose 300 mg/kg, route oral; details: in vivo, 240 h
[20] = system: Mus musculus; assay: Toxicity in Mus musculus albino (mouse) assessed as brownish eye mucus at 80 to 375 mg/kg, ip; assay type: organism-based; parameters: dose 80-375 mg/kg, route intraperitoneal; details: in vivo
[21] = system: Mus musculus; assay: Toxicity in Mus musculus albino (mouse) assessed as tremor inhind limbs at 80 to 375 mg/kg, ip; assay type: organism-based, Limb; parameters: dose 80-375 mg/kg, route intraperitoneal; details: in vivo
[22] = system: Mus musculus; assay: Toxicity in Mus musculus albino (mouse) assessed as GSH activity at 600 mg/kg, po for 10 days (reference value: 59.57 +/- 5.10 %); assay type: organism-based; parameters: dose 600 mg/kg, route oral; details: in vivo, 240 h
[23] = system: Mus musculus; assay: Anti-inflammatory activity in Mus musculus albino (mouse) assessed as inhibition of formalin-induced paw swelling at 60 mg/kg, po administered 30 min prior formalin challenge measured after 120 min post challenge (reference value: 9.83 +/- 0.071 mm/min); assay type: functional
[24] = system: Mus musculus; assay: Anti-inflammatory activity in Mus musculus albino (mouse) assessed as inhibition of formalin-induced paw swelling at 60 mg/kg, po administered 30 min prior formalin challenge measured after 30 min post challenge (reference value: 9.46 +/- 0.035 mm/min); assay type: functional
[25] = system: Mus musculus; assay: Anti-inflammatory activity in Mus musculus albino (mouse) assessed as inhibition of formalin-induced paw swelling at 60 mg/kg, po administered 30 min prior formalin challenge measured after 90 min post challenge (reference value: 9.5 +/- 0.04 mm/min); assay type: functional
[26] = system: Mus musculus; assay: Anti-inflammatory activity in Mus musculus albino (mouse) assessed as inhibition of formalin-induced paw swelling at 60 mg/kg, po administered 30 min prior formalin challenge measured after 60 min post challenge (reference value: 9.73 +/- 0.06 mm/min); assay type: functional
[27] = system: Mus musculus; assay: Toxicity in Mus musculus albino (mouse) assessed as serum SGOT level at 600 mg/kg, po for 10 days (reference value: 9.74 +/- 1.73 U/l); assay type: organism-based; parameters: dose 600 mg/kg, route oral; details: in vivo, 240 h
[28] = system: Mus musculus; assay: Toxicity in Mus musculus albino (mouse) assessed as SOD activity per gram of Hb at 600 mg/kg, po for 10 days (reference value: 12.7 +/- 2.08 U/g Hb); assay type: organism-based; parameters: dose 600 mg/kg, route oral; details: in vivo, 240 h
[29] = system: Mus musculus; assay: Toxicity in Mus musculus albino (mouse) assessed as serum ALP level at 600 mg/kg, po for 10 days (reference value: 31.63 +/- 3.73 U/l); assay type: organism-based; parameters: dose 600 mg/kg, route oral; details: in vivo, 240 h
[30] = system: Mus musculus; assay: Toxicity in Mus musculus albino (mouse) assessed as serum TBARS level at 600 mg/kg, po for 10 days (reference value: 4.35 +/- 0.86 U/l); assay type: organism-based; parameters: dose 600 mg/kg, route oral; details: in vivo, 240 h
[31] = system: Mus musculus; assay: Toxicity in Mus musculus albino (mouse) assessed as serum gamma-glutamyl transferase level at 600 mg/kg, po for 10 days (reference value: 4.43 +/- 0.31 U/l); assay type: organism-based; parameters: dose 600 mg/kg, route oral; details: in vivo, 240 h
[32] = system: Mus musculus; assay: Toxicity in Mus musculus albino (mouse) assessed as serum LDH level at 600 mg/kg, po for 10 days (reference value: 217.84 +/- 13.36 U/l); assay type: organism-based; parameters: dose 600 mg/kg, route oral; details: in vivo, 240 h
[33] = system: Mus musculus; assay: Toxicity in Mus musculus albino (mouse) assessed as serum SGPT level at 600 mg/kg, po for 10 days (reference value: 35.82 +/- 5.26 U/l); assay type: organism-based; parameters: dose 600 mg/kg, route oral; details: in vivo, 240 h
[34] = system: Mus musculus; assay: Toxicity in Mus musculus albino (mouse) assessed as GPx activity per gram of Hb at 600 mg/kg, po for 10 days (Rvb =179.16 +/- 10.45 U/g Hb); assay type: organism-based; parameters: dose 600 mg/kg, route oral; details: in vivo, 240 h

COc1ccccc1/C=N/n1c(Nc2ccc(S(N)(=O)=O)cc2)nc2ccccc2c1=O
Activity [1]: Toxic | Activity [2]: 7.19 millimeter/min | Activity [3]: Toxic | Activity [4]: Toxic | Activity [5]: 7.76 millimeter/min | Activity [6]: 3.97 nmol/mL | Activity [7]: 7.78 millimeter/min | Activity [8]: Toxic | Activity [9]: 4.12 U/L | Activity [10]: 33.65 U/L | Activity [11]: 205.65 U/L | Activity [12]: 13.1 U/g Hb | Activity [13]: 222.25 millimeter/min | Activity [14]: 10.7 U/L | Activity [15]: 6.5 millimeter/min | Activity [16]: 30.01 U/L | Activity [17]: 183 U/g Hb | Activity [18]: Toxic | Activity [19]: 61.45% | Activity [20]: Toxic | Activity [21]: Toxic

COc1ccc2c(c1)c(CC(=O)O)c(C)n2C(=O)c1ccc(Cl)cc1 [INDOMETHACIN]
Activity [22]: 45.32% | Activity [23]: 6.98 millimeter/min | Activity [24]: 6.5 millimeter/min | Activity [25]: 7.2 millimeter/min | Activity [26]: 7.19 millimeter/min | Activity [27]: 24.51 U/L | Activity [28]: 7.45 U/g Hb | Activity [29]: 76.41 U/L | Activity [30]: 7.45 nmol/mL | Activity [31]: 9.45 U/L | Activity [32]: 326.8 U/L | Activity [33]: 65.37 U/L | Activity [34]: 134 U/g Hb
